Activity calls are given as the source filed them. Rule as the data show it, for most assays here: actives have a measured EC50 and inactives only a lower limit.
Columns and labels:
Protein RecA = target: T1, Protein RecA (Mycobacterium tuberculosis, UniProt P9WHJ3); experiment: Fluorescence Cell-Free Homogeneous Dose Retest to Identify Inhibitors of RecA-Intein Splicing Activity. [Related pubchem assays (depositor defined):AID2097, AID2223, AID489010, AID492950]; format: functional
T1 sequence (P9WHJ3 whole entry): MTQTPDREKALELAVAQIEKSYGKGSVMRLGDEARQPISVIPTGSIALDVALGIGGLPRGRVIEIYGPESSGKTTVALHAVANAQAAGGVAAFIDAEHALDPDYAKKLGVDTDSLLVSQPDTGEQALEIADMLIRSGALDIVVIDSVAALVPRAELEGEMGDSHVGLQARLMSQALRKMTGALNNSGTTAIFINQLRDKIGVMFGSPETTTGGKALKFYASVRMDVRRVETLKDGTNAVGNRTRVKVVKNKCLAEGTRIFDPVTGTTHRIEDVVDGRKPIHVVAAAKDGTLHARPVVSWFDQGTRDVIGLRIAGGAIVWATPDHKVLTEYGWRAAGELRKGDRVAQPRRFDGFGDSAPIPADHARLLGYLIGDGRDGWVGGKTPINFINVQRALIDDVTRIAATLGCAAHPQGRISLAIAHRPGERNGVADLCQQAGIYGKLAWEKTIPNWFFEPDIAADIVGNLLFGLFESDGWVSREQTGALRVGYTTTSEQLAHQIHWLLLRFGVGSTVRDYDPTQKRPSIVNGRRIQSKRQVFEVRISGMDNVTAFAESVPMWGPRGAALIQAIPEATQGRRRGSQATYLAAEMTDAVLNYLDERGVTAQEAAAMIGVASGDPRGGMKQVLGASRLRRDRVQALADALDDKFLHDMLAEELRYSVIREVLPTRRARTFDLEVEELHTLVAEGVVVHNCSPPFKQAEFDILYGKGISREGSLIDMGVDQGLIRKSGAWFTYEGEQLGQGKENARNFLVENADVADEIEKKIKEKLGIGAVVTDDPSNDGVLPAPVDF

[1] = target: T2, Replicative DNA helicase DnaB (Mycobacterium tuberculosis, UniProt P9WMR3); experiment: DnaB intein splicing inhibitors, dose response, biochemical, cell-free fluorescence (AID 449749); format: functional
T2 sequence (P9WMR3 whole entry): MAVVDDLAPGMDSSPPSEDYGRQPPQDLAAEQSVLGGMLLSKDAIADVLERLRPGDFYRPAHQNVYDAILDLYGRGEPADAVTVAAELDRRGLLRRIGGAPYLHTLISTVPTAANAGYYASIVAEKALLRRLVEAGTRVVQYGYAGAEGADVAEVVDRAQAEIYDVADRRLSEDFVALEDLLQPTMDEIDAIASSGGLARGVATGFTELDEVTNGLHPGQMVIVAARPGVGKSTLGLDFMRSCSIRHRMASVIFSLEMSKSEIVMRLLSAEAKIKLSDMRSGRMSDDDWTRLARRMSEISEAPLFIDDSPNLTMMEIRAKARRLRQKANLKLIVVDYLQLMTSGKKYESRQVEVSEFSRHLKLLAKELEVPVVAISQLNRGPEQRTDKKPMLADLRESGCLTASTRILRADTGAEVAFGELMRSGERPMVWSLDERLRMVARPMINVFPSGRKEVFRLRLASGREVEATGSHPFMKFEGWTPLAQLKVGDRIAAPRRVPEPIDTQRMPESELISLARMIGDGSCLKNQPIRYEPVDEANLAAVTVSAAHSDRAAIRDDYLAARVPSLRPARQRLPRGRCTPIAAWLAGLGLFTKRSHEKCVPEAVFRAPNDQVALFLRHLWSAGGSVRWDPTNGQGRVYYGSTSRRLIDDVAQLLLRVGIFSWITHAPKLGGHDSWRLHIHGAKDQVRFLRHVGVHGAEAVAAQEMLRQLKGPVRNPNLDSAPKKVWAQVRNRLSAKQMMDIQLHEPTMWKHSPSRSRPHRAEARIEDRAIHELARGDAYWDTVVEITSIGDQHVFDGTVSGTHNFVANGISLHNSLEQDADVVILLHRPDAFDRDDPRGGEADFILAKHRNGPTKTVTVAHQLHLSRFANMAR

[2] = target: T3, Rac GTPase-activating protein 1 (Homo sapiens, UniProt Q9H0H5); experiment: blockers of MgcRacGAP-driven Rac1 GTP hydrolysis – biochemical, ADP Hunter fluorescence, primary and confirmatory, confirmation (AID 624330); format: functional
T3 sequence (Q9H0H5 whole entry): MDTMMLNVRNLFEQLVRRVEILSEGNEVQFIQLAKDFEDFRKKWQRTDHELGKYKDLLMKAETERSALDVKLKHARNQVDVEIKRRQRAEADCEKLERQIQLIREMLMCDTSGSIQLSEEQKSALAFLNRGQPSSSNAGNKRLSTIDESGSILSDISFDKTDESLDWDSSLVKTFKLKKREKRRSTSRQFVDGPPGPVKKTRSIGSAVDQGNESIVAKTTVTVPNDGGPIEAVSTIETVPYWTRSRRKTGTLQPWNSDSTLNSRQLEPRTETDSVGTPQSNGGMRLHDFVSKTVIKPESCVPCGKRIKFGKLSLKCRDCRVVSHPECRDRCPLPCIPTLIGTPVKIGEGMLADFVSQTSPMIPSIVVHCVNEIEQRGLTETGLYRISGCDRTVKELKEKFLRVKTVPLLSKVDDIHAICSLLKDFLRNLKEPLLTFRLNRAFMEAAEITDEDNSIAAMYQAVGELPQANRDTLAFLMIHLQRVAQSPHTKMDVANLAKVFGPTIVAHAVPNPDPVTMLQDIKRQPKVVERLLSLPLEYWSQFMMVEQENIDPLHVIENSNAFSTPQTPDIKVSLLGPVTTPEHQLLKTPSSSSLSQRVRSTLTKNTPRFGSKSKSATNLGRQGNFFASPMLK

[3] = target: FAD-linked sulfhydryl oxidase ALR (Homo sapiens, UniProt P55789); experiment: ALR-catalysed DTT oxidation blockers – biochemical, H2O2 detection, luminescence, cherry-pick, dose response (AID 493248)
FAD-linked sulfhydryl oxidase ALR, sequence (P55789 whole entry): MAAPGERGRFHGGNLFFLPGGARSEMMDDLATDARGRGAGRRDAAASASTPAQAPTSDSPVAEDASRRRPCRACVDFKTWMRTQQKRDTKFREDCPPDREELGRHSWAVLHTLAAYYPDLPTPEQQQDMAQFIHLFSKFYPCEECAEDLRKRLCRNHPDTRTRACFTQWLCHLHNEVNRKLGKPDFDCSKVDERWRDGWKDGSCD

[4] = Luminescence Cell-Based Dose Confirmation HTS to Identify Inhibitors of Platelet Dense Granule Release. [Related pubchem assays: 1663 (Primary HTS), 1678 (Summary of Project)]; format: functional
[5] = target: Luciferin 4-monooxygenase (Photinus pyralis, UniProt P08659); experiment: inhibition of purified Photinus pyralis luciferase – biochemical, luminescence, dose response (AID 1891)
Luciferin 4-monooxygenase, sequence (P08659 whole entry): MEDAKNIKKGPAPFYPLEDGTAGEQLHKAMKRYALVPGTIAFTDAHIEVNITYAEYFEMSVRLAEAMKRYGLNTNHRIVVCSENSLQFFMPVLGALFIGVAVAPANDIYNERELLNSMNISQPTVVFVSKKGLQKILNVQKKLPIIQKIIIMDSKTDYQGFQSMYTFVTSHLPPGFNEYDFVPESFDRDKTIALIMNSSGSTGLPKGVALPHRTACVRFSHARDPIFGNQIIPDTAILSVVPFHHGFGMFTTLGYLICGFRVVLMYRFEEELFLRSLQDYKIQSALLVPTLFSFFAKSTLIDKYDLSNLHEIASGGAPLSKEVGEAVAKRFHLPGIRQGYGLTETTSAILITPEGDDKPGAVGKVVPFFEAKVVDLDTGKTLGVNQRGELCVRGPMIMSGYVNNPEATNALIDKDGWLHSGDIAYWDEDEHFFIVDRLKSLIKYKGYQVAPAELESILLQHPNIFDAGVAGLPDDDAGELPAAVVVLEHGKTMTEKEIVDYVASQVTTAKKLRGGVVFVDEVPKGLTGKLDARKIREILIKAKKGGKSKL

[6] = Trypanosoma cruzi growth suppression in host cells – NIH3T3 host cells, beta-gal luminescence, confirmation (AID 2044); format: functional, cell-based;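 also: intracellular parasites grown in NIH/3T3 mouse fibroblasts as host cells; luminescent beta-galactosidase reporter signal from transgenic T. cruzi replicating inside host cells; inhibitors lower the luminescence signal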
[7] = NIH3T3 cell viability loss – ATP luminescence, mouse fibroblasts, counter-screen, dose response (AID 2010); format: functional, cell-based;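 also: cells exposed to compound for about 90 hours before reading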
Streptokinase A = target: T4, Streptokinase A (Streptococcus pyogenes serotype M1, UniProt P10520); experiment: viability-normalized secreted streptokinase activity reduction – plasminogen activation absorbance, OD405, dose response (AID 1914); format: functional, Streptococcus pyogenes M1 GAS;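 also: secreted streptokinase activity via plasminogen activation per viability signal from cell pellet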
T4 sequence (P10520 whole entry): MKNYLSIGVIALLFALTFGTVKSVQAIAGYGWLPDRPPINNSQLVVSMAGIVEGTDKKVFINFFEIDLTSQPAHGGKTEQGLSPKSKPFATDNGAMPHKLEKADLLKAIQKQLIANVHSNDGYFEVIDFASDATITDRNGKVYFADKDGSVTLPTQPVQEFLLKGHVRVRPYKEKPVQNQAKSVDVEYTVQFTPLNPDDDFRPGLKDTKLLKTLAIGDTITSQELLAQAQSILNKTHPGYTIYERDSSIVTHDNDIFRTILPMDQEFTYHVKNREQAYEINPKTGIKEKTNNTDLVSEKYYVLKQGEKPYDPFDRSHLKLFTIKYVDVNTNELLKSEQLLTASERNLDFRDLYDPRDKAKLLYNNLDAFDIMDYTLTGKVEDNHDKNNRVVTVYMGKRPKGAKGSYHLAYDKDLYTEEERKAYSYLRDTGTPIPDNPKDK

[8] = fluconazole-exposed Candida albicans growth modulators – fluorescence, retest, confirmation (AID 2467); format: functional, cell-based
[9] = NIH-3T3 fibroblast cytotoxicity, dose response, cytotoxicity control, cell-based, fluorescence, Alamar Blue, secondary assay (AID 2327); format: functional;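 also: NIH-3T3 mouse fibroblasts cultured with fluconazole at 8 µg/mL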

CC1CCCN(C(=O)COc2ccc(NC(=O)c3cccs3)cc2)C1 (stereo not given)
EC50 (Protein RecA): > 380 µM (inactive)
AC50 [1]: > 380 µM (inactive)

COc1ccc(N2CCN(C(=O)CCCn3nnnc3CN3CCOCC3)C(C)C2)cc1 (stereo not given)
IC50 [2]: 150 µM (active)

C=CCn1c(SCc2cccc(F)c2)nc2cc(C(=O)N3CCC(C(N)=O)CC3)ccc2c1=O
AC50 [3]: 2.27 µM (active)

CCN(CC(=O)Nc1ccc(S(=O)(=O)N2CCCC2)cc1)CC(=O)Nc1cccc(OC)c1
IC50 [2]: 35.5 µM (active)

CCOc1c(OC(C)=O)ccc(/C=C/c2ccc3cccc(OC)c3n2)c1[N+](=O)[O-]
EC50 [4]: 17.6 µM (active)
EC50 [5]: > 112 µM (not active)

O=[N+]([O-])c1c(O)nc(/C=C\c2cccc(F)c2)nc1O
AC50 [3]: 1.76 µM (active)

Cc1csc(SCC(=O)Nc2nc(-c3ccccc3)cs2)n1
EC50 [4]: > 112 µM (not active)
EC50 [5]: > 112 µM (not active)

O=C1CSC(c2ccccn2)N1c1cccc(Cl)c1 (stereo not given)
AC50 [3]: 0.394 µM (active)

COc1ccccc1CN1CCN(Cc2cc(OC)c(OC)cc2OC)CC1
IC50 [2]: 73.5 µM (active)

CCOC(=O)C1CCCN(C(S)=Nc2ccc(Nc3ccccc3)cc2)C1 (stereo not given)
IC50 [2]: 51 µM (active)

CCOC(=O)c1sc(=S)n(CC)c1NC(=O)C1CC1
EC50 [4]: > 112 µM (not active)
EC50 [5]: > 112 µM (not active)

CCn1c(SCc2cccc(C(=O)O)c2)nnc1-c1ccccc1
EC50 [4]: > 112 µM (not active)
EC50 [5]: > 112 µM (not active)

CCOc1cc(NC(=O)c2ccccc2C(=O)O)c(OCC)cc1NC(=O)c1ccccc1F
EC50 [6]: 5.83 µM (active)
IC50 [2]: 54.8 µM (active)
EC50 [7]: > 60 µM (not active)

Clc1ccc(/C=C/c2ncc3ccccn23)cc1
AC50 [3]: 8.17 µM (active)

CCN1CCCC1CNC(=O)CS(=O)(=O)Cc1nc(-c2ccccc2C)oc1C (stereo not given)
EC50 [4]: 64.8 µM (active)
EC50 [5]: > 112 µM (not active)

CC(C)NC(=S)NC(c1ccccc1)(c1ccccc1)c1ccccc1
EC50 (Streptokinase A): 11.7 µM (active)
EC50 (Protein RecA): 136 µM (inconclusive)
AC50 [1]: 3.07 µM (active)

COc1cc(-n2c(S)nnc2-c2ccccc2)c(OC)cc1Cl
AC50 [3]: 12.3 µM (active)

c1ccc2nc(N3CCCC3)c(N3CCCC3)nc2c1
AC50 [3]: 0.034 µM (active)

COc1ccccc1-n1c(=O)c2c3c(sc2n2c(S)nnc12)CCC3
IC50 [2]: 50.3 µM (active)

Oc1c(C(c2cccs2)N2CCOCC2)sc2ncnn12 (stereo not given)
EC50 [4]: > 112 µM (not active)
EC50 [5]: > 112 µM (not active)

COc1ccc(C(=O)Nc2ccc3[nH]ccc3c2)cc1OC
EC50 [4]: > 112 µM (not active)
EC50 [5]: > 112 µM (not active)

CCOc1cc(/C=C/c2cccc[n+]2C)ccc1O
IC50 [2]: 22.9 µM (active)

CC(=O)N1N=C(c2ccncc2)OC12CCCC2
EC50 [4]: > 112 µM (not active)
EC50 [5]: > 112 µM (not active)

Oc1ccc(O)c2c1C1c3ccccc3C2c2ccccc21
EC50 [8]: 2.94 µM (active)
EC50 [9]: 25 µM (active)
EC50 (Protein RecA): 2.08 µM (active)
AC50 [1]: 34.5 µM (active)

Cc1nc(SCc2ccc(Cl)c(Cl)c2)ncc1C(=O)O
EC50 [8]: 0.78 µM (active)
AC50 [3]: 0.027 µM (active)
EC50 [9]: > 150 µM (inactive)

O=C(O)c1cccc(S(=O)(=O)Nc2ccc(O)c(Sc3nc4ccccc4s3)c2)c1
AC50 [3]: 0.176 µM (active)

O=C(NCc1ccccc1)C(c1cccnc1)N(C(=O)c1ccccn1)c1ccc(F)cc1 (stereo not given)
EC50 [4]: > 112 µM (not active)
EC50 [5]: > 112 µM (not active)

COC(CN(C(=O)CCl)C(C(=O)NC1CCCC(C)C1C)c1ccc(C)cc1)OC (stereo not given)
EC50 (Protein RecA): 2.11 µM (active)
AC50 [1]: 24.6 µM (active)

Nc1cccc(-c2cn3cccnc3n2)c1
AC50 [3]: 0.232 µM (active)

O=C(O)/C=C/C(=O)Nc1ccc(SC(F)(F)C(F)(F)C(F)(F)F)cc1
EC50 (Protein RecA): 2.59 µM (active)
AC50 [1]: 11.7 µM (active)

CCc1ccc(-c2cc(C)no2)cc1S(=O)(=O)NCCN1CCC(C)CC1
EC50 [4]: > 112 µM (not active)
EC50 [5]: > 112 µM (not active)

Cc1onc(-c2ccccc2Cl)c1C(=O)N1CCc2ccccc2C1
EC50 [4]: > 112 µM (not active)
EC50 [5]: > 112 µM (not active)

Cc1c(Cl)cccc1Nc1nnc(S)s1
IC50 [2]: 108 µM (active)

COc1cc(/C=C/C(=O)OCC(=O)Nc2cccc(F)c2)ccc1O
IC50 [2]: 41.6 µM (active)

CCc1n[nH]c2c1C(c1ccc(C)o1)C(C#N)=C(N)O2 (stereo not given)
EC50 (Protein RecA): 4.31 µM (active)
AC50 [1]: 37.3 µM (active)

O=C(N/N=C/c1ccc(O)c(O)c1)c1ccc(-n2cnnn2)cc1
IC50 [2]: 18.6 µM (active)

C/C(=N\Nc1nc2ccccc2[nH]1)c1ccc(C)o1
IC50 [2]: 69 µM (active)
AC50 [3]: 0.299 µM (active)

COc1ccc(COC(=O)N/N=C(\C)CC(=O)Nc2ccc(Cl)cn2)cc1
EC50 (Protein RecA): 4.27 µM (active)
AC50 [1]: 5.46 µM (active)

Sc1nncn1/N=C/c1ccccn1
AC50 [3]: 3.06 µM (active)

Source: ChEMBL document CHEMBL1201862, “PubChem BioAssay data set” (2004)
